Experimental data taken from US12102685B2, “Immodulator peptides covalently modified with small molecules” (priority 2020, dated 2024).
Marks after values point to notes of the source that are not given here. Peptide text beside a SMILES is read from it.

Legend:
[1] = Strength of binding to iron, plate assay (x2E b); conditions: 1 ug/well peptide complexed to Alexa-488-streptavidin; ferric iron
Protocol: Immodulator peptides were extended C-terminally by three amino acids, to include a valine residue that is highly conserved in the “thyroglobulin type 1 motif”. The reasoning behind this attempt is that a longer conserved sequence might lead to a tighter fold overall, which might in turn result in increased metal-binding avidity. • (b) Strength of binding to iron was evaluated by plate assay.
(§1) Experiments were conducted by the procedure described above. Ferric iron-charged NTA-coated 96-well plates were used as described. 1 ug/well immodulator peptide complexed to Alexa-488-labeled streptavidin in PBS buffer was added (60 min at room temperature). The plate was washed and counted in a standard fluorometer (excitation/emission: 485/525 nm). The results (fluorescence) show improved iron-binding by the three peptides extended C-terminally by the AVD, (dA)VD, and FVS tripeptides. **p<0.01 vs IM3 control IM3: 200±29; IM4: 45±37**; IM5: 130±77; IM3AVD: 434±29**; IM3dAVD: 418±28**; IM3FVS: 371±33** • (c) Competition assay. The same procedure was used as the preceding experiment, except that 375 ng/well labeled IM3 peptide was used, plus 10× of the indicated unlabeled peptide. ‘No competing peptide’ control value was set to 100. *p<0.05 vs “no peptide” control Competing Peptide/Fluorescence • None: 100±38; IM4: 125±26; IM3: 63±27*; IM5: 40±14*; IM3AVD: 10±28* • (d) Competition assay. The same procedure was used as the preceding experiment, except that labeled IM3AVD peptide was used. **p<0.01 vs “no competing peptide” control • None: 100±9; IM4: 144±44; IM3: 35±16**; IM5: 30±19**; IM3AVD: 9±19** • (e) The same procedure was used as the preceding experiment, except that each peptide was labeled with Alexa-488-labeled streptavidin in PBS buffer and used separately. Binding to IM3 was set to =100. *p<0.05, **p<0.01 vs IM3 control. (Labeled Peptide/Fluorescence) IM1: 1.8±0.4**; IM2: 3.0±1.8**; IM3: 100.0±16.8; IM4: 7.2±1.7*; IM5: 86.7±6.4; IM6: 85.9±14.9; IM3AVD:137.7±11.8*; IM3dAVD:147.4±22.9*; IM3FVS: 101.5±10.5.

[2] = Iron-binding competition assay with labeled IM3 (x2E c); conditions: 375 ng/well labeled IM3 plus 10x unlabeled peptide; no competing peptide = 100
Protocol: as §1

[3] = Iron-binding competition assay with labeled IM3AVD (x2E d); conditions: labeled IM3AVD plus 10x unlabeled peptide; no competing peptide = 100
Protocol: as §1

[4] = Iron binding of separately labeled peptides (x2E e); conditions: each peptide labeled separately; IM3 = 100; ferric iron
Protocol: as §1

A375 cells = assay: A375 cell viability, CellTiterGlo (x10A); format: cell-based; conditions: 72 hours
Protocol: (§2) Immune modulation functions of immodulator peptides have great potential untility in the field of cancer. A375 cell line was obtained from American Type Culture Collection (ATCC). They were grown in a T-75 flask in DMEM Medium containing 10% fetal bovine serum and penicillin-streptomycin at 37° C. in a humidified, 5% CO2 incubator. Cells ([…], 2,000 cells/well) were plated in a 96-well plate and incubated overnight at 37° C. in a humidified, 5% CO2 incubator. Next day, […] of compounds were added (quadruplicate wells). After 72 hour incubation with the compound, cell viability was measured in a luminometer after the addition of […] CellTiterGlo reagent (Promega Inc, Madison, WI) as recommended by the manufacturer.
Experiment x10A. Anti-cancer activity of immodulator peptides on A375 cells. A 96-well plate was seeded with 2,000 A375 cells per well in DMEM medium containing 10% FBS and PenStrep. After 24 hrs at 37 deg C., compounds and peptides were added (each treatment done in quadruplicate). After a further 72 hours incubation, 100 uL/well of CTG assay reagent purchased from Promega Inc. (Madison, WI) was added. Plate was read after 10 minutes, as recommended by the manufacturer. Peptides were added at 2 uM. The results of this experiment are shown below, expressed as percent survival ofA375 cells.

[5] = Alexa488-SA-labelled IM1-IM6 binding to metal-charged NTA-coated plate (x2B d); conditions: no peptide background = 1.0
Protocol: NTA-metal-affinity fluorescence assay was performed using 96-well NTA-metal-coated plates readily available from commercial sources such as Qiagen (Germantown, MD). NTA was charged with ferrous or ferric iron, zinc, copper, calcium, vanadium, ruthenium, cobalt, titanium, manganese or other metals. 400 ng of FITC-labeled immodulator peptide (or biotinylated immodulator peptide complexed to Alexa-488-labeled streptavidin) in PBS buffer was added per plate. After incubation at room temperature for 60 minutes, excess peptide was washed off and peptide was detected by measuring fluorescence (excitation 490 nm, emmission 525 nm) in a fluorometer. • (a) Using FITC-labeled IM3 peptide (1 ug/well) in the fluorescent binding assay: • EDTA-treated control: 2,251±1,186 • Ferrous iron: 170,441±11,264 (p<0.001)* • Copper: 13,644±5566 (p<0.05)* • Calcium: 48,822±11,990 (p<0.01)* • *p values are relative to EDTA-treated control • (b) Competition binding assay to ferrous iron, calcium, copper and zinc-charged NTA-coated plates using FITC-labeled IM3 peptide (0.5 uM) and 8× (4 uM) unlabelled competitor peptides IM3N1, IM3N2 (*all comparisons to PBS control are p<0.01); # fluorescent value of binding to […] was set at 100.
Ferrous iron # (100±2.6*); Control (no metal): 6.4±3.1; Ferric iron: 94.1±6.6*; Calcium: 47.6±3.7*; Vanadium: 53.9±5.5*; Manganese: 54.4±11.2*; Cobalt: 25.4±2.3*; Copper: 58.4±6.4*; Zinc: 71.4±8.3*; Ruthenium: 67.8±8.3*; (d) Alexa488-SA-labelled immodulator peptide IM1, IM2, IM3, IM4, IM5, IM6 (400 ng/well) were bound to NTA-coated plate charged with the indicated metals: # background (no peptide) control set to 1.0;*p<0.05, **p<0.01 vs “no peptide”

[6] = target: T1, AA111-228 DNA-binding domain of RXR-alpha (RXRa-DBD) (Homo sapiens, UniProt P19793); assay: Binding to RXRa-DBD (x3A); conditions: 1 ug/well RXRa-DBD, 800 ng/well SA488-labelled peptide; background subtracted
T1 construct: purchased Abcam, Cambridge, MA
T1 sequence (P19793 111-228): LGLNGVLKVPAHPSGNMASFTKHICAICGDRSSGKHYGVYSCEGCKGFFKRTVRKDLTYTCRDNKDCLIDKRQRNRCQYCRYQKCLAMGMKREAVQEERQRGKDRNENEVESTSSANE
Protocol: Binding of immodulator peptides to AA111-228 DNA-binding domain of RXR-alpha (RXRa-DBD). 1 ug/well recombinant RXRa-DBD (Abcam, Cambridge, MA) was adsorbed to wells of a 96-well plate for 60 minutes at RT, then blocked with 200 uL 1% BSA in PBS buffer overnight. Plate was washed and 800 ng/well Streptavidin-Alexa 488 conjugate (SA488)-labelled IM peptide was added. The plate was incubated for 60 min at room temperature, washed and counted in a standard fluorometer (excitation/emission 485/525 nm). Background (buffer alone) was subtracted.

[7] = Binding to heparin-agarose spin column (x3D); conditions: 1 ug SA488-labelled peptide
Protocol: 1 ug Streptavidin-Alexa 488 conjugate (SA488)-labelled IM peptide in PBS buffer was loaded on a spin column packed with 0.2 ml bed volume heparin-agarose (G-Biosciences, St. Louis, MO). The column was centrifuged for 2 min at 2,000 G and the flow-through was collected. The column was then washed with 0.3 ml 1% BSA in PBS buffer and the column spin repeated. Flowthrough and wash were pooled and duplicate 20 uL aliquots counted in a standard fluorometer (excitation/emission 485/525 nm). Results are expressed as percentage of input counts that bound the heparin-agarose column, versus flowthrough. Percent counts bound to heparin-agarose resin are shown below. IM3, IM5 and IM6 peptides bind heparin-agarose in this assay.

[8] = Binding to Echelon PPI Arrays (x9B); parameters: key: 0=no binding; 1=low binding; 2=medium binding; 3=high binding; conditions: 100 pmol PPI spot, colorimetric readout
Text: Binding of immodulator peptides to Echelon PPI Arrays. PPI arrays were purchased from Echelon Biosciences (Sal Lake City, UT) and used according to the manufacturer's recommendations. Colorimetric readout from each 100 pmol PPI spot in the array is expressed as 0=no binding, 1=low binding, 2=medium binding and 3=high binding. […] In addition, IM3 and IM5 show slight binding to PI(3,4,5)P3.

[9] = tested on: COL1 in HFF-1 dermal fibroblasts; assay: Collagen-1 ELISA in HFF-1 dermal fibroblasts (x11A); format: cell-based; conditions: peptide 2 uM, 72 hour; control (buffer) = 100
Protocol: as §2, with “have” for “have great”, “cosmetics. HFF-1” for “cancer. A375”, “Cells” for “They”, “compound, supernatants were collected for Collagen-1 ELISA assay and” for “compound,”
Collagen stimulating activity of immodulator peptides in HFF-1 dermal fibroblasts. Peptides were added to cells at 2 uM. COL1 immunoreactivity was measured in the supernatants of cultured cells by ELISA using a rabbit monoclonal anti-COL1 primary antibody (Abcam, Cambridge, MA). Control (buffer) value of immunoreactivity was set to 100.

## CC(C)[C@H](NC(=O)[C@H](C)NC(=O)[C@H](Cc1c[nH]c2ccccc12)NC(=O)[C@H](CS)NC(=O)[C@H](Cc1ccccc1)NC(=O)CNC(=O)[C@H](CCCNC(=N)N)NC(=O)[C@H](CCCCN)NC(=O)[C@H](CCCNC(=N)N)NC(=O)CNC(=O)[C@H](CCCCN)NC(=O)[C@H](CO)NC(=O)[C@@H]1CCCN1C(=O)[C@H](CCCNC(=N)N)NC(=O)[C@H](CS)NC(=O)[C@H](CCC(N)=O)NC(=O)[C@H](CCCCN)NC(=O)[C@H](CCCCN)NC(=O)[C@H](CCCCN)NC(=O)[C@H](Cc1ccc(O)cc1)NC(=O)[C@H](Cc1ccccc1)NC(=O)CNC(=O)[C@H](CCCCN)NC(=O)[C@@H](N)CCCCN)C(=O)N[C@@H](CC(=O)O)C(=O)O [IM3AVD] (H-KKGFYKKKQCRPSKGRKRGFCWAVD-OH; N-terminus and C-terminus assumed)
[1]
  fluorescence (iron binding): 434±29
[2]
  fluorescence of labeled IM3 with competing peptide: 10±28
[3]
  fluorescence of labeled IM3AVD with competing peptide: 9±19
[4]
  fluorescence of labeled peptide: 137.7±11.8
A375 cells; peptide 2 uM + Kin1400 4 uM (RIG-I agonist)
  percent survival of A375 cells: 12.5** percent
A375 cells; peptide 2 uM, Buffer
  percent survival of A375 cells: 96.0%

## N=C(N)NCCC[C@H](NC(=O)[C@H](CCCNC(=N)N)NC(=O)[C@H](CCC(N)=O)NC(=O)CNC(=O)[C@H](CCC(N)=O)NC(=O)[C@H](CO)NC(=O)[C@H](CO)NC(=O)[C@H](CCCNC(=N)N)NC(=O)[C@H](CS)NC(=O)[C@H](CCC(N)=O)NC(=O)[C@H](CCCNC(=N)N)NC(=O)[C@H](CCCCN)NC(=O)[C@H](CCCNC(=N)N)NC(=O)[C@H](Cc1ccc(O)cc1)NC(=O)[C@H](Cc1ccccc1)NC(=O)CNC(=O)[C@H](CCCNC(=N)N)NC(=O)[C@@H](N)Cc1c[nH]cn1)C(=O)NCC(=O)N1CCC[C@H]1C(=O)N[C@@H](CS)C(=O)N[C@@H](Cc1c[nH]c2ccccc12)C(=O)O [IM6] (H-HRGFYRKRQCRSSQGQRRGPCW-OH; N-terminus and C-terminus assumed)
[5]; Calcium
  fluorescence: 15.1 ± 1.9**
[5]; Copper
  fluorescence: 2.4 ± 2.4**
[5]; Ferrous iron, 400 ng/well
  fluorescence: 20.6 ± 0.8**
[5]; Zinc
  fluorescence: 8.4 ± 0.4**
[4]
  fluorescence of labeled peptide: 85.9±14.9
[6]
  fluorescence: 587±192
[7]
  Percent Flowthrough: 2.0%
  Percent retained: 98.0%
[8]
  binding to PI spot: 0
  binding to PI(3,4,5)P3 spot: 0
  binding to PI(4)P1 spot: 0
  binding to PI(4,5)P2 spot: 1
[9]
  COL1 immunoreactivity in supernatant: 112
